Reference: BindingDB's records for PubMed 11454940 (Sanofi Synthelabo, 2001)
Where “and” joins values, the source holds several entries; their conditions need not be identical. Equal values may be shown once.

Experiments:
[1] = target: Gamma-aminobutyric acid receptor subunit alpha-1 (Rattus norvegicus, UniProt P62813)
[2] = target: Gamma-aminobutyric acid receptor subunit alpha-2 (Rattus norvegicus, UniProt P23576)
[3] = target: Gamma-aminobutyric acid receptor subunit alpha-5 (Rattus norvegicus, UniProt P19969)
Sequence of Gamma-aminobutyric acid receptor subunit alpha-5 (P19969 whole entry): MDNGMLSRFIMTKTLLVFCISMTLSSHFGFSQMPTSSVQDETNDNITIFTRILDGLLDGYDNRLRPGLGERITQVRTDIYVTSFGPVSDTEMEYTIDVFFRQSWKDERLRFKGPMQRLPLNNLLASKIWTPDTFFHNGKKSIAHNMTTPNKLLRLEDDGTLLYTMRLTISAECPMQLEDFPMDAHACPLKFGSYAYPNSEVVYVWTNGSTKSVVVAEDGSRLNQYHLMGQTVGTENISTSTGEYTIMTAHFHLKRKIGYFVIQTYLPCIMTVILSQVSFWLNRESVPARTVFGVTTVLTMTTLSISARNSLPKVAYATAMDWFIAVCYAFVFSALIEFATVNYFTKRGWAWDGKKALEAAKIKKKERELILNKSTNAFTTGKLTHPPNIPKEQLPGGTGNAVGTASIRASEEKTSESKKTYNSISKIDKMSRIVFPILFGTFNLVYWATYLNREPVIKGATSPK

[4] = target: Gamma-aminobutyric acid receptor subunit alpha-3 (Rattus norvegicus, UniProt P20236)
Sequence of Gamma-aminobutyric acid receptor subunit alpha-3 (P20236 whole entry I342M/K409L): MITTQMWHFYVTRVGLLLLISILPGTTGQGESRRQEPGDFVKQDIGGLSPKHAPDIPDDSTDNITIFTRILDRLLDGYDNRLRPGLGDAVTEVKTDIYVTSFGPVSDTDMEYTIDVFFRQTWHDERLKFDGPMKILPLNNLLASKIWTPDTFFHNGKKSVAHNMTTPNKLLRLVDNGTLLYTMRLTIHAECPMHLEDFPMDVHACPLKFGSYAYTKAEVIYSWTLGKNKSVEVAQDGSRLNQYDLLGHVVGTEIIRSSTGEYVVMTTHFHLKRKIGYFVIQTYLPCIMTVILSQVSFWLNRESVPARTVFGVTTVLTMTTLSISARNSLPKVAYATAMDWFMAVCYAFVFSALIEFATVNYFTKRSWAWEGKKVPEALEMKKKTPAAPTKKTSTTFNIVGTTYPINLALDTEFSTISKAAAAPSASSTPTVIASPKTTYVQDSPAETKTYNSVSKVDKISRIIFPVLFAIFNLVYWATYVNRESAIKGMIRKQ

Sequence of Gamma-aminobutyric acid receptor subunit alpha-2 (P23576 whole entry): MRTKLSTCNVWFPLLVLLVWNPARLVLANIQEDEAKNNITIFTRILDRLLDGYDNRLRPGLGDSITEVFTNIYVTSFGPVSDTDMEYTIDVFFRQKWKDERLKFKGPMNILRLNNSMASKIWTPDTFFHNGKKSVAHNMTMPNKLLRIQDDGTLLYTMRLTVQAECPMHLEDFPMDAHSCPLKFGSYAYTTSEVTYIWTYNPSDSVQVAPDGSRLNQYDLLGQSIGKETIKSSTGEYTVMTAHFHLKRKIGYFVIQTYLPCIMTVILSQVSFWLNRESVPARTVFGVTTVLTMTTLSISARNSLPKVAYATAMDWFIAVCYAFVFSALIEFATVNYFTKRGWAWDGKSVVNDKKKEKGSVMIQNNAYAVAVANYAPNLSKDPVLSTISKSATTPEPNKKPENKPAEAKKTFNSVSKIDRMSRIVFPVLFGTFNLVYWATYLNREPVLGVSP
Sequence of Gamma-aminobutyric acid receptor subunit alpha-1 (P62813 whole entry): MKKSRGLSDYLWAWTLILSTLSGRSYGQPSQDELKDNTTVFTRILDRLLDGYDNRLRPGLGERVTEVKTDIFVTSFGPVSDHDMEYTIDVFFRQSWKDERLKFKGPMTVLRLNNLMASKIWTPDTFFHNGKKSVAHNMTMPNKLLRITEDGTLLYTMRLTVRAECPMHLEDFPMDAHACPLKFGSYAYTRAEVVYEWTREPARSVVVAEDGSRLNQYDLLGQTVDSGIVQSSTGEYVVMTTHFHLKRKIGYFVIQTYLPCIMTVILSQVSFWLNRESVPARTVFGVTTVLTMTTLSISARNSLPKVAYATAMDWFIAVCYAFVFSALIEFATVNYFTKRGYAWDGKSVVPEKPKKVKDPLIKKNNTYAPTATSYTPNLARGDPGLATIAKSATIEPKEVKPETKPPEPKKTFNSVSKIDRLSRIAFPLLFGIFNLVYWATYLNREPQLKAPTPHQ

In the case of `Cn1c2ccc(F)cc2c2c(C(=O)N3CCCC3)cn(-c3ccccc3)c(=O)c21` [6-FLUOR-2-FENYL-9-METHYL-4-(PYRROLIDINE-1-CARBONYL)-9H-PYRIDO[3,4B]INDOOL-1(2H)-ON], the Ki [1] is reported as 0.0068 µM and 0.017 µM, the Ki [2] is reported as 0.0123 µM and 0.073 µM and the Ki [3] is reported as 0.117 µM and 0.215 µM. The Ki [4] was 0.0803 µM.
